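Briefly, cells in 96-well plates were exposed to five compound concentrations for 48 h, and endpoints were estimated by linear interpolation. The concentration for full growth arrest is given as TGI.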 Where a SMILES comes first, the peptide text is derived from it.
Assays:
Experiment in all cases: growth of human tumour cells (NCI), 48 h
DU-145 prostate = tested on: DU-145 prostate
COLO 205 colon = tested on: COLO 205 colon
MOLT-4 leukemia = tested on: MOLT-4 leukemia
TK-10 renal = tested on: TK-10 renal
MDA-N = tested on: MDA-N
SK-OV-3 ovarian = tested on: SK-OV-3 ovarian
HCT-15 colon = tested on: HCT-15 colon
SF-295 CNS = tested on: SF-295 CNS
NCI-H23 lung = tested on: NCI-H23 lung
BT-549 breast = tested on: BT-549 breast
UO-31 renal = tested on: UO-31 renal
SN12C renal = tested on: SN12C renal
SF-268 CNS = tested on: SF-268 CNS
SW-620 colon = tested on: SW-620 colon
SK-MEL-5 melanoma = tested on: SK-MEL-5 melanoma
786-0 renal = tested on: 786-0 renal
RXF 393 renal = tested on: RXF 393 renal
OVCAR-3 ovarian = tested on: OVCAR-3 ovarian
UACC-257 melanoma = tested on: UACC-257 melanoma
MDA-MB-435 = tested on: MDA-MB-435
MDA-MB-231 breast = tested on: MDA-MB-231 breast
A549 NSCLC = tested on: A549 NSCLC
M14 melanoma = tested on: M14 melanoma
SNB-19 CNS = tested on: SNB-19 CNS
HCT-116 colon = tested on: HCT-116 colon
ACHN renal = tested on: ACHN renal
NCI-H460 lung = tested on: NCI-H460 lung
LOX IMVI melanoma = tested on: LOX IMVI melanoma
HL-60(TB) leukemia = tested on: HL-60(TB) leukemia
MALME-3M melanoma = tested on: MALME-3M melanoma
HCC-2998 colon = tested on: HCC-2998 colon
CAKI-1 renal = tested on: CAKI-1 renal
NCI-H522 lung = tested on: NCI-H522 lung
HOP-62 NSCLC = tested on: HOP-62 NSCLC
HT29 colon = tested on: HT29 colon
K-562 leukemia = tested on: K-562 leukemia
SK-MEL-28 melanoma = tested on: SK-MEL-28 melanoma
NCI/ADR-RES ovarian = tested on: NCI/ADR-RES ovarian
PC-3 prostate = tested on: PC-3 prostate
KM12 colon = tested on: KM12 colon
IGROV1 ovarian = tested on: IGROV1 ovarian
RPMI-8226 leukemia = tested on: RPMI-8226 leukemia
CCRF-CEM leukemia = tested on: CCRF-CEM leukemia
SR leukemia = tested on: SR leukemia
SK-MEL-2 melanoma = tested on: SK-MEL-2 melanoma
HS 578T breast = tested on: HS 578T breast
MCF7 breast = tested on: MCF7 breast
OVCAR-5 ovarian = tested on: OVCAR-5 ovarian
EKVX NSCLC = tested on: EKVX NSCLC
U251 CNS = tested on: U251 CNS
OVCAR-8 ovarian = tested on: OVCAR-8 ovarian
HOP-92 NSCLC = tested on: HOP-92 NSCLC
NCI-H226 lung = tested on: NCI-H226 lung
OVCAR-4 ovarian = tested on: OVCAR-4 ovarian
SNB-75 CNS = tested on: SNB-75 CNS
A498 renal = tested on: A498 renal
SF-539 CNS = tested on: SF-539 CNS

Compound: CCC(C)C(NC(=O)C(CCCCN)NC(=O)C(NC(=O)C(CCC(N)=O)NC(=O)C(N)CCCNC(=N)N)C(C)CC)C(=O)NC(Cc1c[nH]c2ccccc12)C(=O)NC(Cc1ccccc1)C(=O)NC(CCC(N)=O)C(=O)NC(CC(N)=O)C(=O)NC(CCCNC(=N)N)C(=O)NC(CCCNC(=N)N)C(=O)NC(CCSC)C(=O)NC(CCCCN)C(=O)NC(Cc1c[nH]c2ccccc12)C(=O)NC(CCCCN)C(=O)NC(CCCCN)C(=O)N1CCCC1C(=O)NC(C)C(=O)NC(CCCCN)C(=O)NC(CCCNC(=N)N)C(=O)NC(CCCCN)C(=O)NC(CC(C)C)C(=O)NC(Cc1ccccc1)C(=O)NCC(=O)O (stereo unspecified) (H-RQIKIWFQNRRMKWKKPAKRKLFG-OH; configuration not given here)
- TGI (DU-145 prostate): > 25 µM
- TGI (COLO 205 colon): > 25 µM
- TGI (MOLT-4 leukemia): > 25 µM
- TGI (TK-10 renal): > 25 µM
- TGI (MDA-N): > 25 µM
- TGI (SK-OV-3 ovarian): > 25 µM
- TGI (HCT-15 colon): > 25 µM
- TGI (SF-295 CNS): > 25 µM
- TGI (NCI-H23 lung): > 25 µM
- TGI (BT-549 breast): > 25 µM
- TGI (UO-31 renal): > 25 µM
- TGI (SN12C renal): > 25 µM
- TGI (SF-268 CNS): > 25 µM
- TGI (SW-620 colon): > 25 µM
- TGI (SK-MEL-5 melanoma): > 25 µM
- TGI (786-0 renal): > 25 µM
- TGI (RXF 393 renal): > 25 µM
- TGI (OVCAR-3 ovarian): > 25 µM
- TGI (UACC-257 melanoma): > 25 µM
- TGI (MDA-MB-435): > 25 µM
- TGI (MDA-MB-231 breast): > 25 µM
- TGI (A549 NSCLC): > 25 µM
- TGI (M14 melanoma): > 25 µM
- TGI (SNB-19 CNS): > 25 µM
- TGI (HCT-116 colon): > 25 µM
- TGI (ACHN renal): > 25 µM
- TGI (NCI-H460 lung): > 25 µM
- TGI (LOX IMVI melanoma): > 25 µM
- TGI (HL-60(TB) leukemia): 17.6 µM
- TGI (MALME-3M melanoma): 18.3 µM
- TGI (HCC-2998 colon): > 25 µM
- TGI (CAKI-1 renal): > 25 µM
- TGI (NCI-H522 lung): > 25 µM
- TGI (HOP-62 NSCLC): > 25 µM
- TGI (HT29 colon): > 25 µM
- TGI (K-562 leukemia): > 25 µM
- TGI (SK-MEL-28 melanoma): > 25 µM
- TGI (NCI/ADR-RES ovarian): > 25 µM
- TGI (PC-3 prostate): > 25 µM
- TGI (KM12 colon): > 25 µM
- TGI (IGROV1 ovarian): > 25 µM
- TGI (RPMI-8226 leukemia): 15.1 µM
- TGI (CCRF-CEM leukemia): > 25 µM
- TGI (SR leukemia): > 25 µM
- TGI (SK-MEL-2 melanoma): > 25 µM
- TGI (HS 578T breast): > 25 µM
- TGI (MCF7 breast): > 25 µM
- TGI (OVCAR-5 ovarian): > 25 µM
- TGI (EKVX NSCLC): > 25 µM
- TGI (U251 CNS): > 25 µM
- TGI (OVCAR-8 ovarian): > 25 µM
- TGI (HOP-92 NSCLC): > 25 µM
- TGI (NCI-H226 lung): > 25 µM
- TGI (OVCAR-4 ovarian): > 25 µM
- TGI (SNB-75 CNS): > 25 µM

Compound: COC(CN(C(=O)c1ccccc1)C1CCC2(SCCS2)c2[nH]c3ccccc3c21)OC (stereo unspecified)
- TGI (DU-145 prostate): > 100 µM
- TGI (COLO 205 colon): 59.3 µM
- TGI (MOLT-4 leukemia): > 100 µM
- TGI (TK-10 renal): > 100 µM
- TGI (MDA-N): 49 µM
- TGI (HCT-15 colon): > 100 µM
- TGI (A498 renal): > 100 µM
- TGI (SF-295 CNS): 13.9 µM
- TGI (NCI-H23 lung): > 100 µM
- TGI (BT-549 breast): > 100 µM
- TGI (UO-31 renal): > 100 µM
- TGI (SN12C renal): > 100 µM
- TGI (SF-268 CNS): > 100 µM
- TGI (SW-620 colon): > 100 µM
- TGI (SK-MEL-5 melanoma): > 100 µM
- TGI (786-0 renal): > 100 µM
- TGI (RXF 393 renal): > 100 µM
- TGI (OVCAR-3 ovarian): > 100 µM
- TGI (UACC-257 melanoma): 33.5 µM
- TGI (MDA-MB-435): 70.2 µM
- TGI (MDA-MB-231 breast): > 100 µM
- TGI (A549 NSCLC): > 100 µM
- TGI (M14 melanoma): > 100 µM
- TGI (SNB-19 CNS): > 100 µM
- TGI (HCT-116 colon): > 100 µM
- TGI (ACHN renal): > 100 µM
- TGI (NCI-H460 lung): > 100 µM
- TGI (LOX IMVI melanoma): 6.67 µM
- TGI (HL-60(TB) leukemia): > 100 µM
- TGI (MALME-3M melanoma): > 100 µM
- TGI (HCC-2998 colon): > 100 µM
- TGI (CAKI-1 renal): > 100 µM
- TGI (NCI-H522 lung): 65.4 µM
- TGI (HOP-62 NSCLC): > 100 µM
- TGI (HT29 colon): > 100 µM
- TGI (SF-539 CNS): > 100 µM
- TGI (K-562 leukemia): > 100 µM
- TGI (SK-MEL-28 melanoma): > 100 µM
- TGI (NCI/ADR-RES ovarian): > 100 µM
- TGI (PC-3 prostate): 77.1 µM
- TGI (KM12 colon): > 100 µM
- TGI (IGROV1 ovarian): > 100 µM
- TGI (RPMI-8226 leukemia): > 100 µM
- TGI (CCRF-CEM leukemia): > 100 µM
- TGI (SR leukemia): > 100 µM
- TGI (SK-MEL-2 melanoma): > 100 µM
- TGI (HS 578T breast): > 100 µM
- TGI (MCF7 breast): > 100 µM
- TGI (OVCAR-5 ovarian): > 100 µM
- TGI (EKVX NSCLC): > 100 µM
- TGI (U251 CNS): > 100 µM
- TGI (OVCAR-8 ovarian): > 100 µM
- TGI (HOP-92 NSCLC): > 100 µM
- TGI (NCI-H226 lung): > 100 µM
- TGI (OVCAR-4 ovarian): > 100 µM
- TGI (SNB-75 CNS): > 100 µM

Source: PubChem BioAssay (NCI)
